According to patent publication US20230085307A1, “PYRIDAZINONE COMPOUND AND HERBICIDE” (NISSAN CHEMICAL CORPORATION, priority 2019, published 2023):

How the values were obtained:
blackgrass [1] = experiment: Test Example 5: herbicidal effect by foliage application, plastic box (Table 20, symbol J); assay type: in vivo, blackgrass (Alopecurus myosuroides); conditions: amount of applied herbicide 320 g/ha; foliage application after 14-day growth; evaluated three weeks after application
Method in brief: (§1)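 Post-emergence foliar test in sterilized diluvial soil. Compound applied as water-diluted emulsion at a predetermined rate to 14-day-old plants; evaluation at three weeks.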

chickweed [2] = experiment: Test Example 5: herbicidal effect by foliage application, plastic box (Table 20, symbol P); assay type: in vivo, common chickweed (Stellaria media); conditions: amount of applied herbicide 320 g/ha; foliage application after 14-day growth; evaluated three weeks after application
Method in brief: as §1

oval-leafed pondweed = experiment: Test Example 2: herbicidal activity, application during weed generation under submerged conditions (Table 17, symbol C); assay type: in vivo, oval-leafed pondweed (Monochoria vaginalis); conditions: AAH 320 g/ha; application during weed generation, submerged conditions
Method in brief: (§2)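 Herbicide emulsion, diluted with water to the chosen amount, is applied onto 4 cm floodwater over alluvial soil where the weeds were co-sown and raised at 25–30° C. Application timing: 1–2 leaves. Assessment: three weeks afterwards.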

Japanese bulrush [3] = experiment: Test Example 2: herbicidal activity, application during weed generation under submerged conditions (Table 17, symbol B); assay type: in vivo, Japanese bulrush (Schoenoplectus juncoides); conditions: AAH 320 g/ha; application during weed generation, submerged conditions
Method in brief: as §2

velvetleaf = experiment: Test Example 4: herbicidal effect by soil treatment (Table 19, symbol M); assay type: in vivo, velvetleaf (Abutilon theophrasti); conditions: amount of applied herbicide 320 g/ha
Method in brief: (§3)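 Emulsion of test compound, water-diluted to predetermined amount, sprayed on soil after sowing (seed depth ~1.5 cm, sterilized diluvial soil). Greenhouse, 25–30° C. Effect graded at three weeks post-spray.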

rice flat sedge = experiment: Test Example 3: herbicidal effect by foliage application, Wagner pot (Table 18, symbol E); assay type: in vivo, rice flat sedge (Cyperus iria); conditions: 320 g/ha
Method in brief: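 Plants were sown in alluvial soil held under 0.1–0.5 cm standing water and grown 14 days in a greenhouse at 25–30 °C. An emulsifiable formulation, water-diluted to the set dose, was then sprayed onto the foliage, and effects were scored three weeks later using previously defined criteria.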

barnyard grass = experiment: Test Example 5: herbicidal effect by foliage application, plastic box (Table 20, symbol H); assay type: in vivo, barnyard grass (Echinochloa crus-galli); conditions: amount of applied herbicide 320 g/ha; foliage application after 14-day growth; evaluated three weeks after application
Method in brief: as §1

wild oat [4] = experiment: Test Example 5: herbicidal effect by foliage application, plastic box (Table 20, symbol I); assay type: in vivo, wild oat (Avena fatua); conditions: amount of applied herbicide 320 g/ha; foliage application after 14-day growth; evaluated three weeks after application
Method in brief: as §1

redroot pigweed [5] = experiment: Test Example 4: herbicidal effect by soil treatment (Table 19, symbol N); assay type: in vivo, redroot pigweed (Amaranthus retroflexus); conditions: amount of applied herbicide 320 g/ha
Method in brief: as §3

wild oat [6] = experiment: Test Example 4: herbicidal effect by soil treatment (Table 19, symbol I); assay type: in vivo, wild oat (Avena fatua); conditions: amount of applied herbicide 320 g/ha
Method in brief: as §3

southern crabgrass = experiment: Test Example 4: herbicidal effect by soil treatment (Table 19, symbol F); assay type: in vivo, southern crabgrass (Digitaria ciliaris); conditions: amount of applied herbicide 320 g/ha
Method in brief: as §3

green foxtail = experiment: Test Example 4: herbicidal effect by soil treatment (Table 19, symbol G); assay type: in vivo, green foxtail (Setaria viridis); conditions: amount of applied herbicide 320 g/ha
Method in brief: as §3

Japanese bulrush [7] = experiment: Test Example 1: herbicidal activity, application before weed generation under submerged conditions (Table 16, symbol B); assay type: in vivo, Japanese bulrush (Schoenoplectus juncoides); conditions: amount of applied herbicide 320 g/ha
Method in brief: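 Alluvial soil was flooded to 4 cm depth, weed seeds were sown mixed and 2.5-leaf rice seedlings were transplanted. On sowing day, the compound's emulsion, diluted in water to a set dose, was applied to the water surface. Plants grew at 25–30 °C and were scored 0–5 after three weeks.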

blackgrass [8] = experiment: Test Example 4: herbicidal effect by soil treatment (Table 19, symbol J); assay type: in vivo, blackgrass (Alopecurus myosuroides); conditions: amount of applied herbicide 320 g/ha
Method in brief: as §3

chickweed [9] = experiment: Test Example 4: herbicidal effect by soil treatment (Table 19, symbol P); assay type: in vivo, common chickweed (Stellaria media); conditions: amount of applied herbicide 320 g/ha
Method in brief: as §3

redroot pigweed [10] = experiment: Test Example 5: herbicidal effect by foliage application, plastic box (Table 20, symbol N); assay type: in vivo, redroot pigweed (Amaranthus retroflexus); conditions: amount of applied herbicide 320 g/ha; foliage application after 14-day growth; evaluated three weeks after application
Method in brief: as §1

late watergrass = experiment: Test Example 2: herbicidal activity, application during weed generation under submerged conditions (Table 17, symbol A); assay type: in vivo, late watergrass (Echinochloa oryzicola); conditions: AAH 320 g/ha; application during weed generation, submerged conditions
Method in brief: as §2

Structure (SMILES) | Herbicidal effect by foliage application, J: blackgrass (blackgrass [1]) | Herbicidal effect by foliage application, P: chickweed (chickweed [2]) | herbicidal effect rating, C: oval-leafed pondweed (oval-leafed pondweed) | herbicidal effect rating, B: Japanese bulrush (Japanese bulrush [3]) | Herbicidal effect by soil treatment, M: velvetleaf (velvetleaf) | herbicidal effect on rice flat sedge (E) (rice flat sedge) | Herbicidal effect by foliage application, H: barnyard grass (barnyard grass) | Herbicidal effect by foliage application, I: wild oat (wild oat [4]) | Herbicidal effect by soil treatment, N: redroot pigweed (redroot pigweed [5]) | Herbicidal effect by soil treatment, I: wild oat (wild oat [6]) | Herbicidal effect by soil treatment, F: southern crabgrass (southern crabgrass) | Herbicidal effect by soil treatment, G: green foxtail (green foxtail) | Herbicidal effect, B: Japanese bulrush (Japanese bulrush [7]) | Herbicidal effect by soil treatment, J: blackgrass (blackgrass [8]) | Herbicidal effect by soil treatment, P: chickweed (chickweed [9]) | Herbicidal effect by foliage application, N: redroot pigweed (redroot pigweed [10]) | herbicidal effect rating, A: late watergrass (late watergrass) | M: velvetleaf, herbicidal effect grade (velvetleaf) | N: redroot pigweed, herbicidal effect grade (redroot pigweed [5]) | I: wild oat, herbicidal effect grade (wild oat [6]) | further results
COc1ccc(-c2sc3c(C)cccc3c2-c2c(O)c(C)nn(C)c2=O)cc1 [4-110] | 4 (Herbicidal rate of 70% or more and less than 90%) | 5 (Herbicidal rate of 90% or more (almost completely withered)) | 5 (Herbicidal rate of 90% or more (almost completely withered)) | 3 (Herbicidal rate of 40% or more and less than 70%) | 3 (Herbicidal rate of 40% or more and less than 70%) | 5 (Herbicidal rate of 90% or more (almost completely withered)) | 2 (Herbicidal rate of 20% or more and less than 40%) | 0 (Herbicidal rate of 5% or less (almost no effect)) | 5 (Herbicidal rate of 90% or more (almost completely withered)) | 0 (Herbicidal rate of 5% or less (almost no effect)) | 0 (Herbicidal rate of 5% or less (almost no effect)) | 0 (Herbicidal rate of 5% or less (almost no effect)) | 5 (Herbicidal rate of 90% or more (almost completely withered)) | 0 (Herbicidal rate of 5% or less (almost no effect)) | 5 (Herbicidal rate of 90% or more (almost completely withered)) | 5 (Herbicidal rate of 90% or more (almost completely withered)) | 0 (Herbicidal rate of 5% or less (almost no effect)) |  |  |  | 
CCSc1ccc(-c2sc3c(C)cccc3c2-c2c(O)c(C)nn(C)c2=O)cc1 [4-124] | 5 (Herbicidal rate of 90% or more (almost completely withered)) | 5 (Herbicidal rate of 90% or more (almost completely withered)) | 0 (Herbicidal rate of 5% or less (almost no effect)) | 0 (Herbicidal rate of 5% or less (almost no effect)) | 3 (Herbicidal rate of 40% or more and less than 70%) | 5 (Herbicidal rate of 90% or more (almost completely withered)) | 5 (Herbicidal rate of 90% or more (almost completely withered)) | 4 (Herbicidal rate of 70% or more and less than 90%) | 5 (Herbicidal rate of 90% or more (almost completely withered)) | 0 (Herbicidal rate of 5% or less (almost no effect)) | 4 (Herbicidal rate of 70% or more and less than 90%) | 5 (Herbicidal rate of 90% or more (almost completely withered)) | 3 (Herbicidal rate of 40% or more and less than 70%) | 2 (Herbicidal rate of 20% or more and less than 40%) | 4 (Herbicidal rate of 70% or more and less than 90%) | 5 (Herbicidal rate of 90% or more (almost completely withered)) | 3 (Herbicidal rate of 40% or more and less than 70%) |  |  |  | 
CCCC(=O)Oc1c(C)nn(C)c(=O)c1-c1c(-c2ccccc2OC)sc2cc(F)c(F)cc12 [5-012] | 4 (Herbicidal rate of 70% or more and less than 90%) | 5 (Herbicidal rate of 90% or more (almost completely withered)) | 2 (Herbicidal rate of 20% or more and less than 40%) | 2 (Herbicidal rate of 20% or more and less than 40%) |  | 3 (Herbicidal rate of 40% or more and less than 70%) | 2 (Herbicidal rate of 20% or more and less than 40%) | 2 (Herbicidal rate of 20% or more and less than 40%) |  |  |  |  | 3 (Herbicidal rate of 40% or more and less than 70%) |  |  | 4 (Herbicidal rate of 70% or more and less than 90%) | 0 (Herbicidal rate of 5% or less (almost no effect)) | 3 (Herbicidal rate of 40% or more and less than 70%) | 5 (Herbicidal rate of 90% or more (almost completely withered)) | 3 (Herbicidal rate of 40% or more and less than 70%) | F: southern crabgrass, herbicidal effect grade (southern crabgrass): 3 (Herbicidal rate of 40% or more and less than 70%); G: green foxtail, herbicidal effect grade (green foxtail): 3 (Herbicidal rate of 40% or more and less than 70%); J: blackgrass, herbicidal effect grade (blackgrass [8]): 3 (Herbicidal rate of 40% or more and less than 70%); P: chickweed, herbicidal effect grade (chickweed [9]): 3 (Herbicidal rate of 40% or more and less than 70%)
COc1ccc(-c2sc3cc(Cl)c(Cl)cc3c2-c2c(O)c(C)nn(C)c2=O)cc1 [5-043] | 0 (Herbicidal rate of 5% or less (almost no effect)) | 5 (Herbicidal rate of 90% or more (almost completely withered)) | 0 (Herbicidal rate of 5% or less (almost no effect)) | 0 (Herbicidal rate of 5% or less (almost no effect)) |  | 4 (Herbicidal rate of 70% or more and less than 90%) | 0 (Herbicidal rate of 5% or less (almost no effect)) | 0 (Herbicidal rate of 5% or less (almost no effect)) |  |  |  |  | 2 (Herbicidal rate of 20% or more and less than 40%) |  |  | 3 (Herbicidal rate of 40% or more and less than 70%) | 2 (Herbicidal rate of 20% or more and less than 40%) | 0 (Herbicidal rate of 5% or less (almost no effect)) | 0 (Herbicidal rate of 5% or less (almost no effect)) | 0 (Herbicidal rate of 5% or less (almost no effect)) | F: southern crabgrass, herbicidal effect grade (southern crabgrass): 0 (Herbicidal rate of 5% or less (almost no effect)); G: green foxtail, herbicidal effect grade (green foxtail): 0 (Herbicidal rate of 5% or less (almost no effect)); J: blackgrass, herbicidal effect grade (blackgrass [8]): 0 (Herbicidal rate of 5% or less (almost no effect)); P: chickweed, herbicidal effect grade (chickweed [9]): 3 (Herbicidal rate of 40% or more and less than 70%)
